According to US20220362230A1, “USE OF GLUTARIMIDE DERIVATIVE FOR OVERCOMING STEROID RESISTANCE AND TREATING DISEASES ASSOCIATED WITH ABERRANT INTERFERON GAMMA SIGNALING” ("CHEMIMMUNE THERAPEUTICS" LIMITED LIABILITY COMPANY, priority 2018, published 2022):

What was measured:
IFN-γ = experiment: Phase II clinical trial, interferon-γ concentration in blood plasma; format: in vivo, human; details: with baseline therapy, compared with baseline therapy and placebo; regardless of IFN-γ level at inclusion
Protocol: (§1) During the study therapy phase, patients received Compound 1 or placebo for 12 weeks against the background of baseline steroid therapy with low doses of inhaled corticosteroids. Compound 1 or placebo was administered orally once a day, 30 minutes before breakfast.
(§2) To study the effect of the IFN-γ baseline level in patients with asthma, the results obtained in the clinical study were additionally analyzed; the patients' response to therapy was studied depending on their IFN-γ baseline level in the blood at the time of trial inclusion (determined by the Bio-Plex Pro Human Chemokine Panel Assay (Bio-Rad)).
(§3) Moreover, in the clinical trial, Compound 1 was also analyzed for its effect on IFN-γ signal transduction. […] Thus, the suppression of steroid resistance induced by the use of Compound 1 could potentially be associated with an effect on the aberrant activity (signaling) of IFN-γ.

[1] = system: interferon-γ-dependent cytokine CXCL10 (interferon-gamma-induced protein IP10); experiment: Phase II clinical trial, CXCL10 concentration in blood plasma; format: in vivo, human; details: with baseline steroid therapy; patients with IFN-γ baseline level >100 pg/ml
Protocol: as §1, §2, §3

[2] = system: cough induced by inhalation of citric acid and IFN-γ; experiment: Guinea pig model of cough induced by inhalation of citric acid and IFN-γ; format: in vivo, guinea pigs of the Aguti line; details: for The number of coughing movements within 8 minutes: 7 hours before citric acid inhalation, M ± m, n=5
Protocol: The activity of Compound I in a model of cough in guinea pigs, which was induced by inhalation of citric acid and IFN-γ, was studied in accordance with the method [Am J Respir Crit Care Med. 2018. V. 198(7). P. 868-879].
In the study, guinea pigs of the Aguti line were used. All experimental animals were inhaled with a citric acid solution (0.3 M) prepared in physiological saline, for 8 minutes. The pathology control group and the groups receiving therapy were inhaled with IFN-γ (10 pg/kg) for 3 minutes at 7 hours before the inhalation of citrate. Compound 1 was administered intragastrically once, immediately after inhalation of IFN-γ, i.e. 7 hours before inhalation of the citric acid solution. The antitussive activity was evaluated by counting the number of coughing fits within 8 minutes from the start of inhalation of citric acid. All data were analyzed by descriptive statistics: arithmetic mean (M) and standard error of the arithmetic mean (m). The Shapiro-Wilk test was used to check the normality of the distribution of the obtained experimental data. A normal distribution was analyzed with 1-way ANOVA (with Dunnett's post-analysis) to assess intergroup differences. A non-normal distribution was analyzed with […] (with Tukey's post-analysis) to compare several groups. Differences were determined at a confidence level of 5%.

[3] = system: patients with bronchial asthma; experiment: Phase II clinical trial (PULM-XC8-02, NCT03450434), response to baseline inhaled corticosteroid therapy (FEV1); format: in vivo, human
Protocol: Thus, Compound is potentially useful for the therapy of diseases associated with the development of steroid resistance, in particular for the treatment of steroid-resistant asthma.
In the clinical trial, eligible patients were randomized 1:1:1:1 to one of four groups: • Compound 1 at a dose of 2 mg per day; • Compound 1 at a dose of 10 mg per day; • Compound 1 at a dose of 100 mg per day; and • Placebo.
as §1
Thus, one of the effects of the use of Compound 1 is the overcoming of the resistance to corticosteroids, which is the backbone of the baseline therapy of patients enrolled in the clinical trial.
as §2
The patients' response to baseline therapy in the groups of baseline steroid therapy and placebo decreased with an increase in the IFN-γ baseline level (FIG. 2). […] This fact indicates the overcoming of steroid resistance that can be caused, inter alia, by aberrant IFN-γ signaling.

[4] = system: acute oxazolone-induced ulcerative colitis; experiment: Murine model of acute oxazolone-induced ulcerative colitis; format: in vivo, female balb/c mice; details: for The degree of large intestine wall damage, score: 72 hours after oxazolone, M ± m, n=10
Protocol: The activity of Compound 1 in a model of acute oxazolone-induced ulcerative colitis was studied using the standard method [Immunity. 2002. P. 629-638]. In the study, female balb/c mice (6-8 weeks old) were used. Compound I was administered intragastrically, three times: 1 hour, 25 hours, and 49 hours after rectal administration of oxazolone. The body weight of the animals was measured before and 24, 48 and 72 hours after administration of oxazolone. The intestinal wall damage was evaluated under a microscope 72 hours after administration of oxazolone, according to the following score scale: 0=no damage, 1=hyperemia, no ulcers, 2=hyperemia, thickening of the intestinal wall, no ulcers, 3=one ulcer without thickening of the intestinal wall, 4=2 or more sites of ulceration or inflammation, 5=2 or more serious sites of ulceration and inflammation, or one site of ulceration/inflammation, extending >1 cm along the length of the colon, and 6-10=damage covers>2 cm long the length of the colon, the score is increased by 1 for each additional 1 cm of involvement. All data were analyzed by descriptive statistics: arithmetic mean (M) and standard error of the arithmetic mean (m). The Shapiro-Wilk test was used to check the normality of the distribution of the obtained experimental data. A normal distribution was analyzed with 1-way ANOVA (with Dunnett's post-analysis) to assess intergroup differences. A non-normal distribution was analyzed with […] (with Tukey's post-analysis) to compare several groups. Differences were determined at a confidence level of 5%.

**Q.** Which results are given for `O=C1CCCC(=O)N1CCc1cnc[nH]1` [Compound 1, 1-(2-(1H-imidazol-4-yl)ethyl)piperidine-2,6-dione]?
**A.** Change in concentration of IFN-γ in blood plasma, week 12 vs week 0 (IFN-γ): negative dynamics of IFN-γ concentrations; Change in concentration of CXCL10 (IP10) in blood plasma, week 12 vs week 0 [1]: suppressed the concentration of interferon-γ-dependent cytokine CXCL10; The number of coughing movements within 8 minutes ([2]; 1.4 mg/kg intragastrically once): 19.2 ± 2.7&; The number of coughing movements within 8 minutes ([2]; 14 mg/kg intragastrically once): 18.4 ± 2.9&; Effect on number of coughing movements ([2]; administered intragastrically): reduced the number of coughing movements; Response to therapy (change in FEV1, week 12 vs. week 0) ([3]; 100 mg per day with baseline steroid therapy vs placebo, especially patients with IFN-γ level more than 100 pg/ml): significantly greater and clinically significant response to therapy; Clinical effect ([3]; 100 mg per day, 12 weeks, with baseline low-dose inhaled corticosteroids): clinically significant effect; Number of patients with an increase in FEV1 by 100 ml or more (response to baseline steroid therapy) ([3]; baseline steroid therapy and Compound 1, 12 weeks, oral once a day, placebo group 13 out of 29): 20 patients out of 29; The degree of large intestine wall damage, score ([4]; 0.3 mg/kg intragastrically x3): 1.70 ± 0.30 score; Body weight ([4]; 0.3 mg/kg, 24 hours after administration of oxazolone): 17.9 ± 0.2 g; Body weight ([4]; 0.3 mg/kg, 48 hours after administration of oxazolone): 17.5 ± 0.3 g; Body weight ([4]; 0.3 mg/kg, 72 hours after administration of oxazolone): 16.9 ± 0.2 g; Body weight ([4]; 0.3 mg/kg, before administration of oxazolone): 19.0 ± 0.6 g; The degree of large intestine wall damage, score ([4]; 3 mg/kg intragastrically x3): 1.89 ± 0.31 score; Body weight ([4]; 3 mg/kg, 24 hours after administration of oxazolone): 17.9 ± 0.3 g; Body weight ([4]; 3 mg/kg, 48 hours after administration of oxazolone): 17.6 ± 0.2 g; Body weight ([4]; 3 mg/kg, 72 hours after administration of oxazolone): 16.7 ± 0.2 g; Body weight ([4]; 3 mg/kg, before administration of oxazolone): 18.7 ± 0.4 g; The degree of large intestine wall damage, score ([4]; 30 mg/kg intragastrically x3): 1.40 ± 0.16& score; Body weight ([4]; 30 mg/kg, 24 hours after administration of oxazolone): 18.8 ± 0.2& g; Body weight ([4]; 30 mg/kg, 48 hours after administration of oxazolone): 18.4 ± 0.4& g; Body weight ([4]; 30 mg/kg, 72 hours after administration of oxazolone): 18.4 ± 0.5& g; Body weight ([4]; 30 mg/kg, before administration of oxazolone): 19.8 ± 0.6 g; Effect on degree of damage of the colon wall ([4]; administered intragastrically): reduced the degree of damage of the colon wall; Effect on weight loss in animals ([4]; administered intragastrically): prevented weight loss; Intensity of action compared with reference steroid ([4]; murine model of ulcerative colitis): not inferior to prednisolone by intensity of action

**Q.** What does the source list for `C[C@]12C=CC(=O)C=C1CC[C@@H]1[C@@H]2C(=O)C[C@@]2(C)[C@H]1CC[C@]2(O)C(=O)CO` [Prednisone, reference compound]?
**A.** Body weight ([4]; 10 mg/kg, 24 hours after administration of oxazolone): 18.5 ± 0.4 g; Body weight ([4]; 10 mg/kg, 48 hours after administration of oxazolone): 17.9 ± 0.4 g; Body weight ([4]; 10 mg/kg, 72 hours after administration of oxazolone): 17.3 ± 0.6 g; The degree of large intestine wall damage, score ([4]; 10 mg/kg): 1.80 ± 0.25 score; Body weight ([4]; 10 mg/kg, before administration of oxazolone): 19.0 ± 0.4 g
